Results: US20100120738A1, “ANTI-APOPTOTIC BENZODIAZEPINE RECEPTOR LIGAND INHIBITORS” (priority 2006, published 2010)
Like-named read-outs stand apart in the source and are kept apart here.

Key:
[1] = Lipophilicity by octanol partitioning; type: physicochemical; details: octanol-water
Protocol: To indicate the likelihood that the compounds will cross lipid membranes and be absorbed once administered by oral means, their lipophilicities were determined by octanol partitioning. […] Quantitation was performed by HPLC-UV.

[2] = tested on: cultured mesencephalic tissue slices; assay: MPP+ induced neurodegeneration in cultured mesencephalic tissue slices (LDH release); type: cell-based, rat; details: 20 μM MPP+; compound 100 nM, 1.0 μM, 10 μM; FIG. 17
Protocol: FIG. 17 is a graphical representation showing the effects of exemplary low molecular weight metalloporphyrin compounds of the present invention on MPP+ induced neurodegeneration in cultured mesencephalic tissue slices. Mesencephalic tissue slices were prepared from PND 3-5 rats and maintained in culture for 2 weeks. The tissue slices were incubated with a porphyrin compound as indicated on the x-axis for 6 hours before adding 20 μM MPP+ to induce neuronal apoptosis. Concentrations of each porphyrin compound tested were 100 nM ? 1.0 μM ? and 10 μM ? Following a further incubation for 48 hours, the slices were collected and the level of lactate dehydrogenase (LDH) released into the medium was determined.

[3] = Brain uptake (brain level over plasma level); type: in vivo; details: above 20 ul/g indicates delivery across the blood-brain barrier
Protocol: In further studies, compounds are administered orally to animals as described above, or alternatively, by daily i.p. injection for up to five days at concentrations of about 0.3 mg/kg body weight, 3.0 mg/kg and 30 mg/kg. The animals are then sacrificed and their brains removed and snap-frozen in liquid nitrogen. The brains are homogenized in methanol containing 5% TCA, and the soluble fraction is prepared by centrifugation.
Levels of compounds in the brain tissue are determined by LC-MS (HPLLC, Waters; Mass Spectrometer, Micromass Quattro). The half-life of each compound administered to the animals is determined over a period of time from about 5 minutes up to about 2 days.
Brain bioavailability is determined by calculating brain uptake at all time points. Brain uptake is the ratio of brain levels (as moles/g tissue) over plasma levels (as […] and is expressed as ul/g. One gram of brain tissue contains approximately 20 ul of plasma. Thus, any brain uptake value above 20 ul/g is indicative of delivery across the blood-brain barrier to the brain parenchyma. For example, the brain uptake values for EUK-418 are in excess of about 100 ul/g.

[4] = tested on: Bovine capillary endothelial cells; assay: Protection against radiation-induced apoptosis (DAPI apoptotic index); type: cell-based; details: low doses; FIG. 13 and FIG. 14
Protocol: Bovine capillary endothelial cells were cultured on eight chamber Labtek slides and exposed to ionizing radiation (20 Gy) for 6 hours. After this time, cells were either left untreated or treated with compound at the concentration indicated on the x-axis. Cells were then fixed in methanol and stained with 5 μg/ml DAPI and DNA was visualized using a Nikon epifluorescence microscope, and apoptosis scored and expressed as an apoptotic index according to the percentage of apoptotic cells in a field of 100 cells. Open bars indicate apoptotic index following irradiation. Hatched bars indicate apoptotic index for control cells not receiving a dose of ionizing radiation.
(§1) Bovine capillary endothelial cells were cultured on eight-chamber Labtek slides and exposed to ionizing radiation (20 Gy), which was calibrated using an X-ray exposure meter. […] In control experiments, cells either received no ionizing radiation (sham) or no compound. After 6 h incubation, the cells were fixed in methanol and stained with 5 μg/ml 4,6-diamidino-2-phenylindole (DAPI). DNA was visualized using a Nikon epifluorescence microscope, and apoptosis was scored and expressed as an apoptotic index (% apoptotic cells in a field of 100).

[5] = Oral bioavailability in vivo, plasma levels by LC-MS/MS after intragastric gavage; design: species or system rat
Protocol: FIG. 18 is a graphical representation showing the bioavailability in vivo for the compounds {[{(Porphine-5,15-diyl)bis[cyclopropyl-diyl]}](2-)-N^21,N^22,N^23,N^24} manganese(III) acetate (EUK-418) and {[{(Porphine-5,15-diyl)bis[benzyl-diyl]}](2-)-N^21,N^22,N^23,N^24} manganese(III) acetate (EUK-423) in rats. Fasted and fed Sprague-Dawley rats were dosed by intragastric gavage with either 4 mg/kg EUK-418 or 2 mg/kg EUK-423. At the times indicated on the x-axis, plasma was obtained from the animals and the concentrations of compounds determined by LC-MS/MS.
Fasted and fed Sprague-Dawley rats were dosed by intragastric gavage with either 4 mg/kg EUK-418 or 2 mg/kg EUK-423. At time points up to 7 hr post-administration, animals were sacrificed, their blood collected over heparin, plasma samples prepared by centrifugation, and plasma levels of the compounds were determined by LC-MS/MS.

[6] = Stability in USP simulated gastric fluid (SGF); type: in vitro ADME; details: 37° C., pH approx. 1.2
Source text: Aliquots of SGF were withdrawn and intact compound quantitated by HPLC-UV.

[7] = tested on: Bovine capillary endothelial cells; assay: Cytotoxicity/necrosis of non-irradiated cells (LDH release, field number); type: cell-based
Protocol: as §1, with “100). […] Field number was also calculated for all other compounds tested as a control (results not shown).” for “100).”
To determine cytotoxicity of the compounds under these conditions, duplicate samples of the cells receiving a dose of compound at each concentration tested in the absence of a dose of ionizing radiation were assayed for release of LDH into the culture medium.

[8] = Superoxide dismutase (SOD) activity; type: biochemical
PC12 cells = assay: Protection against STS-induced apoptosis in PC12 cells (XTT viability assay); type: cell-based, rat
Protocol: Rat pheochromocytoma (PC12) cells were cultured in collagen-coated 96-well plates according to directions provided by the American Type Culture Collection. Staurosporine was added at various concentrations sufficient to induce apoptosis. Test compounds were added together with the staurosporine. Cells were incubated overnight at 37° C., 5% CO2. After 18-24 hours, test media was removed and cell viability was determined using the XTT viability assay described by Baker et al., J. Pharmacol. Exp, Therapeutics 284, 215-221, 1998, the contents of which are incorporated herein by reference.

Compound: C1=Cc2nc1cc1ccc([n-]1)c(C1CC1)c1nc(cc3ccc([n-]3)c2C2CC2)C=C1.CC(=O)[O-].[Mn+3] [EUK-418, {[{(Porphine-5,15-diyl)bis[cyclopropyl-diyl]}](2-)-N^21,N^22,N^23,N^24} manganese(III) acetate]
- Log10 P value [1]: 0.548 ± 0.009
- P value (octanol partitioning coefficient) [1]: 3.53 ± 0.14
- prevention of cytotoxicity induced by MPP+ [2]: prevent cytotoxicity
- brain uptake value (brain level / plasma level) [3]: > 100 µL/g
- protection of cells exposed to ionizing radiation [4]: protected
- effect of fasting of animals on plasma concentration ([5]; 4 mg/kg intragastric gavage): increase plasma concentration
- plasma concentration to which compound declined for the assayed period ([5]; 4 mg/kg intragastric gavage, fasted rats, up to 7 hr): about 100 ng/ml
- plasma time course ([5]; intragastric gavage, 4 mg/kg EUK-418 or 2 mg/kg EUK-423): increased rapidly in serum of fasted rats
- found in plasma / bioavailable after oral administration ([5]; intragastric gavage, 4 mg/kg EUK-418 or 2 mg/kg EUK-423, fasted and fed rats): bioavailable in vivo
- Percentage remaining after 90 mins in SGF [6]: 92.2%
- necrosis at the protective concentration ([7]; 3 μM EUK-418, about 3-10 μM EUK-423): failed to induce noticeable necrosis
- concentration causing significant increase in field number for control cells, indicating cytotoxicity ([7]; control cells without ionizing radiation): ≥ 30 µM
- IC50 ([8]; cuvette format, read-out: Cuvette IC50): 8.28 µM
- IC50 ([8]; microplate format, read-out: Microplate IC50): 0.382 µM
- effect on staurosporine-induced apoptosis of PC12 cells (PC12 cells; FIG. 11): effectively reduce apoptosis
- effect on staurosporine-induced apoptosis of PC12 cells (PC12 cells; FIG. 12, at up to about 5 μM concentration, toxicity blunts protection at high concentrations): effectively reduce apoptosis
